From paper PMC10404814, “Fluorescent membrane potential assay for drug screening on Kv10.1 channel: identification of BL-1249 as a channel activator” (Frontiers in Pharmacology, 2023)

Key:
Format in all cases: cell-based
Kv10.1 [1] = target: T1, Kv10.1 (Homo sapiens, UniProt O95259); assay: FLIPR membrane potential assay in HEK-Kv10.[…] cells, […]; conditions: read-out: % decrease at 50 μM
T1 construct: gene KCNH1
T1 sequence (O95259 1-989): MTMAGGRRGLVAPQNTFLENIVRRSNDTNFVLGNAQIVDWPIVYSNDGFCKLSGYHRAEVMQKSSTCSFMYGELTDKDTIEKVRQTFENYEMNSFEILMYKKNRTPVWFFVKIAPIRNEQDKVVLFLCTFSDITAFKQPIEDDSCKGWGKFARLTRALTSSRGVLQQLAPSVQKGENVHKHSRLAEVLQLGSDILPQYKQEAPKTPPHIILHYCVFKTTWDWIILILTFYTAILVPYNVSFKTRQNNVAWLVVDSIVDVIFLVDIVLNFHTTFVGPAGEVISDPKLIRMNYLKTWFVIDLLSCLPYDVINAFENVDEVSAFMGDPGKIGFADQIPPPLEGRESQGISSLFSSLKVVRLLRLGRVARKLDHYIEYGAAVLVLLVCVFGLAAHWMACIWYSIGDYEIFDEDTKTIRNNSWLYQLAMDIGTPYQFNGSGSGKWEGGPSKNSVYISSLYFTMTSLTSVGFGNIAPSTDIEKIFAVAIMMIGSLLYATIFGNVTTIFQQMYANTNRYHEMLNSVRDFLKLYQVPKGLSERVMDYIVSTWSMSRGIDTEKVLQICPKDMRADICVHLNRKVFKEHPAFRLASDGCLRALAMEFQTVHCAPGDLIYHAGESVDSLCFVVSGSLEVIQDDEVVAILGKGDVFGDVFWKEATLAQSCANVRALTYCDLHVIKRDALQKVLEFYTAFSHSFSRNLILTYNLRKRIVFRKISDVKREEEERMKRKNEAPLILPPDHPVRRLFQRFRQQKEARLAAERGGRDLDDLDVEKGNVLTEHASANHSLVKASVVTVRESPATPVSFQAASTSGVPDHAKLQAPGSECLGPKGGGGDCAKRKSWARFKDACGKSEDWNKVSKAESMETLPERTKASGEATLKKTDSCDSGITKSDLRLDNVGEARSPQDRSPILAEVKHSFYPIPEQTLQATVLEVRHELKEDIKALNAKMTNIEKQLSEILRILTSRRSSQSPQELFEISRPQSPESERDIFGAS

Kv10.1 [2] = target: T1, Kv10.1; assay: as above; conditions: read-out: % decrease at 100 μM
Kv10.1 [3] = target: T1, Kv10.1; assay: whole-cell voltage-clamp of HEK293 cells stably expressing human Kv10.[…]
Kv10.1 [4] = target: T1, Kv10.1; assay: whole-cell voltage-clamp of HEK293 cells stably expressing human Kv10.[…] (activator); no effect in HEK-WT

Row | Compound | inhibition at 100 µM (Kv10.1 [2]) | IC50 (Kv10.1 [3]) | also measured
1 | COc1ccc(CCN2CCC(Nc3nc4ccccc4n3Cc3ccc(F)cc3)CC2)cc1 [astemizole] | – | – | inhibition at 50 µM (Kv10.1 [1]): 34.8%
2 | CN(C)CCC=C1c2ccccc2CCc2ccccc21 [amitriptyline] | 25.5% | – | –
3 | CNCCC(Oc1ccc(C(F)(F)F)cc1)c1ccccc1 (stereo not drawn) [fluoxetine] | – | 11.2 ± 6.2 µM | –
4 | CN(C)C(=O)C(CCN1CCC(O)(c2ccc(Cl)cc2)CC1)(c1ccccc1)c1ccccc1 [loperamide] | 31.9% | – | –
5 | c1ccc(-c2nnn[nH]2)c(Nc2cccc3c2CCCC3)c1 [BL, BL-1249] | – | – | EC50 (Kv10.1 [4]): 36.5 µM
6 | Clc1ccc(COC(Cn2ccnc2)c2ccc(Cl)cc2Cl)c(Cl)c1 (stereo not drawn) [MN, miconazole nitrate] | – | 23.6 ± 5 µM | –
